Results from the supplement of paper PMC13380429.

Legend:
Conditions in all cases: 72 h
Calu-3 [1] = assay: relative viability EC50 (midpoint between 100% and the lowest measured viability); higher = less toxic
U2OS [2] = assay: as above
HepG2 [3] = assay: as above
Caco-2 [4] = assay: as above
Vero E6 [5] = assay: as above
Calu-3 [6] = assay: drug sensitivity score (DSS) for viability; higher = more toxic; extreme values may be limits of the assay
U2OS [7] = assay: as above
HepG2 [8] = assay: as above
Caco-2 [9] = assay: as above
Vero E6 [10] = assay: as above
Calu-3 [11] = assay: cell viability relative to DMSO; higher = less toxic
U2OS [12] = assay: as above
HepG2 [13] = assay: as above
Caco-2 [14] = assay: as above
Vero E6 [15] = assay: as above

Compound | relative viability EC50 (Calu-3 [1]) [µM] | relative viability EC50 (U2OS [2]) [µM] | relative viability EC50 (HepG2 [3]) [µM] | relative viability EC50 (Caco-2 [4]) [µM] | relative viability EC50 (Vero E6 [5]) [µM] | drug sensitivity score (Calu-3 [6]) | drug sensitivity score (U2OS [7]) | drug sensitivity score (HepG2 [8]) | drug sensitivity score (Caco-2 [9]) | drug sensitivity score (Vero E6 [10]) | cell viability (Calu-3 [11]; 1 nM) [%] | cell viability (Calu-3 [11]; 10 nM) [%] | cell viability (Calu-3 [11]; 100 nM) [%] | cell viability (Calu-3 [11]; 1000 nM) [%] | cell viability (Calu-3 [11]; 10000 nM) [%] | cell viability (U2OS [12]; 1 nM) [%] | cell viability (U2OS [12]; 10 nM) [%] | cell viability (U2OS [12]; 100 nM) [%] | cell viability (U2OS [12]; 1000 nM) [%] | cell viability (U2OS [12]; 10000 nM) [%] | cell viability (HepG2 [13]; 1 nM) [%] | cell viability (HepG2 [13]; 10 nM) [%] | cell viability (HepG2 [13]; 100 nM) [%] | cell viability (HepG2 [13]; 1000 nM) [%] | cell viability (HepG2 [13]; 10000 nM) [%] | cell viability (Caco-2 [14]; 1 nM) [%] | cell viability (Caco-2 [14]; 10 nM) [%] | cell viability (Caco-2 [14]; 100 nM) [%] | cell viability (Caco-2 [14]; 1000 nM) [%] | cell viability (Caco-2 [14]; 10000 nM) [%] | cell viability (Vero E6 [15]; 1 nM) [%] | cell viability (Vero E6 [15]; 10 nM) [%] | cell viability (Vero E6 [15]; 100 nM) [%] | cell viability (Vero E6 [15]; 1000 nM) [%] | cell viability (Vero E6 [15]; 10000 nM) [%]
COc1cc(C[C@@H](CO[C@@H]2O[C@H](CO)[C@@H](O)[C@H](O)[C@H]2O)[C@H](CO[C@@H]2O[C@H](CO)[C@@H](O)[C@H](O)[C@H]2O)Cc2ccc(O)c(OC)c2)ccc1O [secoisolariciresinol-diglucoside] | > 10 | > 10 | > 10 | > 10 | > 10 | 0 | 0 | 0 | 0 | 0 | 103 | 92.9 | 87.4 | 103 | 102 | 94 | 96.7 | 101 | 101 | 97.9 | 98.7 | 104 | 102 | 111 | 110 | 100 | 93.6 | 96.7 | 99.4 | 108 | 95.6 | 101 | 93.6 | 97.8 | 110
COc1cc(OC)cc(C(=O)NNC(=O)Nc2cccc3ccccc23)c1 [TC-O-9311] | > 10 | > 10 | > 10 | > 10 | > 10 | 0 | 0 | 0 | 0 | 0 | 84.2 | 92.1 | 93.6 | 97.8 | 107 | 99 | 100 | 98.3 | 101 | 98.4 | 100 | 101 | 92.3 | 90.9 | 98.7 | 96.3 | 112 | 101 | 102 | 88 | 102 | 102 | 94.9 | 94.1 | 96
CC(Oc1ccc(O)cc1)(P(=O)(O)O)P(=O)(O)O | > 10 | > 10 | > 10 | > 10 | > 10 | 0 | 0 | 0 | 0 | 0 | 106 | 88.6 | 103 | 84.8 | 97.1 | 104 | 99.5 | 105 | 98 | 100 | 106 | 95.4 | 97.6 | 99.2 | 102 | 110 | 98.7 | 98 | 87.1 | 104 | 96.5 | 104 | 97.7 | 98.7 | 95.8
CO[C@H]1O[C@@H]2O[C@@]3(C)CC[C@H]4[C@H](C)CC[C@@H]([C@H]1C)[C@@]24OO3 [artemether] | > 10 | > 10 | > 10 | > 10 | > 10 | 0 | 0 | 0.4 | 0.4 | 0 | 106 | 108 | 96.3 | 101 | 96.5 | 99.1 | 97.1 | 101 | 96.6 | 94.4 | 97.6 | 101 | 103 | 92.1 | 87.8 | 95.4 | 94.5 | 97.3 | 86.6 | 86.2 | 103 | 106 | 92.1 | 95.9 | 96.9
NNC(=O)CSc1nc2scc(-c3ccccc3)c2c(=O)n1-c1ccccc1 | > 10 | > 10 |  | > 10 | > 10 | 0 | 0 |  | 0 | 0 | 91.9 | 93.2 | 95.3 | 103 | 101 | 97.7 | 95.8 | 98.3 | 103 | 102 |  |  |  |  |  | 100 | 97.7 | 93.1 | 93.6 | 108 | 94.1 | 97.1 | 94.8 | 90.5 | 109
C[C@]12CC[C@@H]3c4ccc(O)cc4C[C@@H](CCCCCCCCC[S+]([O-])CCCC(F)(F)C(F)(F)F)[C@H]3[C@@H]1CC[C@@H]2O (stereo partly specified) [fulvestrant] | > 10 | > 10 | > 10 | > 10 | > 10 | 0 | 0 | 0.3 | 0.1 | 0 | 96.7 | 114 | 104 | 90.2 | 92.7 | 105 | 110 | 102 | 103 | 88.7 | 100 | 102 | 96.8 | 98 | 86.7 | 104 | 107 | 102 | 110 | 85.4 | 100 | 102 | 100 | 96.9 | 99.6
CCC(C(=O)O)c1ccc(CC(C)C)cc1 (stereo unspecified) [butibufen] | > 10 | > 10 | > 10 | > 10 | > 10 | 0 | 0 | 0 | 0 | 0 | 97.1 | 105 | 99.9 | 113 | 105 | 97.4 | 95.5 | 97.9 | 102 | 104 | 107 | 101 | 99 | 110 | 106 | 102 | 92.8 | 103 | 94.4 | 99.3 | 93.3 | 92.5 | 87.6 | 95.9 | 105
N#Cc1c[nH]c2c(C(=O)N3CCN(CCc4ccc(F)cc4)CC3)cccc12 [pruvanserin] | > 10 | > 10 | > 10 | > 10 | > 10 | 0 | 0 | 0 | 0 | 0 | 91.8 | 112 | 91.4 | 112 | 101 | 94 | 98.4 | 92.5 | 104 | 100 | 103 | 110 | 117 | 98.1 | 99.3 | 94.9 | 95.3 | 96.9 | 98.1 | 95.7 | 105 | 86.8 | 102 | 95.2 | 98.4
FC(F)(F)C(F)(F)C(F)(F)C(F)(F)C(F)(F)C(F)(F)C(F)(F)C(F)(F)Br [perflubron] | > 10 | > 10 | > 10 | > 10 | > 10 | 0 | 0 | 0 | 0 | 0 | 87.9 | 108 | 98.1 | 102 | 93.4 | 98.1 | 100 | 94.1 | 104 | 97.1 | 104 | 102 | 99.9 | 96.4 | 105 | 97 | 98.9 | 91.8 | 103 | 91.2 | 109 | 101 | 102 | 92.4 | 96.7
CC(C)(C)c1ccc(CN2CCN(C(c3ccccc3)c3ccc(Cl)cc3)CC2)cc1 (stereo unspecified) [buclizine] | > 10 | > 10 |  | > 10 | > 10 | 0 | 0 | 2.2 | 0.2 | 0 | 95.1 | 98.3 | 94.6 | 87.1 | 92.1 | 96.7 | 97.6 | 96.8 | 98.9 | 90.8 | 95.7 | 106 | 99.6 | 91.3 | 73.5 | 108 | 98.3 | 100 | 98.3 | 87.5 | 103 | 102 | 101 | 98.2 | 95.9
Fc1ccc(-c2nc3n(c2-c2ccncc2)CCS3)cc1 | > 10 | > 10 | > 10 | > 10 | > 10 | 0 | 0 | 0 | 0.2 | 0 | 95.2 | 86.2 | 90.9 | 87.7 | 101 | 99 | 97.8 | 98.7 | 96.1 | 97.6 | 97.3 | 93.2 | 97.8 | 99.9 | 100 | 99.6 | 101 | 90.9 | 89.4 | 92 | 97.8 | 99.7 | 98.2 | 99.1 | 93
O=c1[nH]c2ccccc2n1C1CCN(CCOc2ccccc2)CC1 [oxiperomide] | > 10 | > 10 |  | > 10 | > 10 | 0.1 | 0 | 1.9 | 0 | 0.7 | 112 | 101 | 97.1 | 97.9 | 88.2 | 98.9 | 108 | 100 | 99.8 | 91.6 | 104 | 112 | 95.7 | 98.1 | 64.7 | 104 | 105 | 87.3 | 104 | 87.2 | 97.4 | 95.8 | 98.6 | 99.4 | 78.7
NC(=O)C[C@H](N)C(=O)O [L-asparagine] | > 10 | > 10 | > 10 | > 10 | > 10 | 0 | 0 | 0 | 0 | 0.1 | 95.2 | 95.6 | 93.1 | 96.1 | 98 | 96.5 | 95.4 | 98.6 | 98.7 | 102 | 92.7 | 116 | 92.3 | 105 | 93.7 | 103 | 104 | 92.1 | 106 | 105 | 102 | 112 | 99.2 | 101 | 86.8
NC(=O)c1cn([C@@H]2O[C@H](CO)[C@@H](O)[C@H]2O)c2ncnc(N)c2c1=O [API-1] | 0.639 | 2.98 | 0.544 | 1.53 | 2.1 | 10.6 | 5.9 | 13.6 | 5.6 | 4 | 97 | 107 | 87.5 | 52.7 | 20.7 | 95.7 | 98.8 | 91.1 | 97.5 | 0.9 | 106 | 97.9 | 84.9 | 39 | 4.5 | 92.3 | 92.9 | 85 | 80.1 | 36.4 | 97 | 89.7 | 94.8 | 93 | 47.3
